Results published in patent publication US4999424A, “GAR transformylase inhibitor” (The Pennsylvania State University, priority 1988, dated 1991).
Like-named read-outs stand apart in the source and are kept apart here.

Assays:
GAR TFase = details: indirectly shown, solid tumors in mice; cited from earlier work
[1] = tested on: intracellular pools of ATP and GTP; details: tested against solid tumors in mice; cited from earlier work
solid tumors = details: variety of solid tumors in mice; cited from earlier work
HL-60 = details: in vivo and in vitro; cited from earlier work
6C3HED lymphosarcoma = details: in vivo and in vitro; cited from earlier work
X-5563 = details: in vivo and in vitro; cited from earlier work
B-16 melanoma = details: in vivo and in vitro; cited from earlier work
L1210 leukemia = details: in vivo and in vitro; cited from earlier work
P388 leukemia = details: in vivo and in vitro; cited from earlier work
E. coli GAR TFase [2] = molecular target: T1, E. coli GAR TFase (Escherichia coli, UniProt P08179); test: E. coli GAR TFase inhibition/activity assay (5,8-dideazafolate absorbance at 295 nm); format: biochemical
T1 construct: made in house; host or cells: E. coli TX393 with multicopy plasmid pJS85, or E. coli TX635 with lambda pL plasmid pJS119 or pJS167
T1 sequence (P08179 1-212): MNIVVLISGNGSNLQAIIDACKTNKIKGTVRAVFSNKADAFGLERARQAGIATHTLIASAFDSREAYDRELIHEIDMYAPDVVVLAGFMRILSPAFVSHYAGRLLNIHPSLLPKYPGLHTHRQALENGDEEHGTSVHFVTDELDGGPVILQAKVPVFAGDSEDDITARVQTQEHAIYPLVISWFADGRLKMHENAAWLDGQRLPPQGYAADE
Method: (§1) All assays were carried out by following the increase of 5,8-dideazafolate absorbence at 295 nm in buffered medium at 26° C. To initiate the reaction, enzyme (1 nM final concentration) was added to a mixture of saturating substrates and variable amounts of inhibitor. A characteristic family of curves was obtained, showing slow, tight-binding inhibition. See, Morrison, Trends Biochem. Sc., 7, 102 (1982) and Morrison, et al., Adv. Enzymology, Relat. Areas Mol. Biol., 57, 201-301 (1987).
(§2) In analyzing the biological activity of the compounds of the present invention, GAR TFase from E. coli was used. This enzyme behaves like the mammalian and avian enzyme with respect to substrate specificity, yet is a simple and effective system having only one biological activity. That is, unlike the avian trifunctional GAR TFase, the E. coli species has a sole function. This follows from the genetic evidence of Smith and Daum, J. Biol. Chem., 262, 10565-10569 (1987) as w®11 as the work of Schrimsher et al., Biochemistry, 25, 4366-4371 (1986) who have shown that […] from E. coli is a monofunctional protein, whereas, in chicken it belongs to a trifunctional protein containing, the activates: GAR SYNthase, GAR TFase, and AIR SYNthase.
The E. coli GAR TFase binding constants for the compounds of the present invention and other folate analogs are shown in Table I below:
Table II illustrates the specificity of beta-TGDDF for GAR TFase in comparison with other reduced-folate utilizing enzymes. This test, was conducted using the same [I]/[E]ratios as stated previously.

E. coli GAR TFase [3] = molecular target: T1, E. coli GAR TFase; test: Fluorescence titration, dissociation constant for E. coli GAR TFase; format: binding
Method: The thermodynamic dissociation constant, KD, for the E.β-TGDDF complex was measured by following the enhancement of the inhibitor's 395 nm fluorescence (excitation at 275 nm) upon binding to GAR TFase. A concentrated E. coli GAR TFase solution was added to an 11 nM solution of purified β-TGDDF; for each addition, the fluorescence at three different wavelengths (396, 400, and 405 nm) was measured. Fluorescence titration data was analyzed by the method of Taira and Benkovic, J. Med. Chem., 31, 129-137 (1988).
as §2
(§3) The E. coli GAR TFase binding constants for the compounds of the present invention and other folate analogs are shown in Table I below: […]

[4] = substrate: NCC(=O)N[C@@H]1O[C@H](COP(=O)(O)O)[C@@H](O)[C@H]1O; test: E. coli GAR TFase inhibition/activity assay (5,8-dideazafolate absorbance at 295 nm); format: biochemical; details: other: Table I, 26.0 °C
Method: as §1, §2, §3

[5] = substrate: Nc1nc(O)c2cc(CN(C=O)c3ccc(C(=O)N[C@@H](CCC(=O)O)C(=O)O)cc3)ccc2n1; test: as above; format: biochemical; details: other: Table I, 26.0 °C
Method: as §1, §2, §3

Nc1nc2c(c(=O)[nH]1)CC(CCc1ccc(C(=O)NC(CCC(=O)O)C(=O)O)cc1)CN2 (stereo not shown) [DDATHF]
Inhibition of GAR TFase (GAR TFase): indirectly shown to inhibit GAR TFase | Effect on intracellular pools of ATP and GTP [1]: depletion of intracellular pools of ATP and GTP | Activity against solid tumors (solid tumors): impressive activity | Anti-tumor activity (HL-60): anti-tumor,activity | Anti-tumor activity (6C3HED lymphosarcoma): anti-tumor,activity | Anti-tumor activity (X-5563): anti-tumor,activity | Anti-tumor activity (B-16 melanoma): anti-tumor,activity | Anti-tumor activity (L1210 leukemia): anti-tumor,activity | Anti-tumor activity (P388 leukemia): anti-tumor,activity

Nc1nc2ccc(CNc3ccc(C(=O)N[C@@H](CCC(=O)O)C(=O)O)cc3)cc2c(=O)[nH]1 [DDF, 5,8-dideazafolate, reference compound]
Ki (E. coli GAR TFase [2]): 28100 nM

Nc1nc2ccc(CN(C(=O)CSCC(=O)NC3O[C@H](CO)[C@@H](O)[C@H]3O)c3ccc(C(=O)N[C@@H](CCC(=O)O)C(=O)O)cc3)cc2c(=O)[nH]1 (stereo partly drawn) [alpha,beta-dephospho-TGDDF]
Ki (E. coli GAR TFase [2]; Table I, E. coli GAR TFase, read-out: KI): 1700 nM

Nc1nc2ccc(CN(C(=O)CSCC(=O)N[C@H]3O[C@H](COP(=O)(O)O)[C@@H](O)[C@H]3O)c3ccc(C(=O)N[C@@H](CCC(=O)O)C(=O)O)cc3)cc2c(=O)[nH]1 [alpha-TGDDF]
binding affinity for GAR TFase (comparison of anomers) (E. coli GAR TFase [3]; alpha- versus beta-anomer): lower than the beta-anomer | Kd (E. coli GAR TFase [3]; alpha-anomer, read-out: KD): 5.8 nM

CN(Cc1cnc2nc(N)nc(N)c2n1)c1ccc(C(=O)N[C@@H](CCC(=O)O)C(=O)O)cc1 [methotrexate]
Activity against solid tumors (solid tumors): minimal activity

B1: E. coli GAR TFase (Escherichia coli K-12) (protein)
chain: T1 sequence (P08179 1-212)
notes: made in house; host or cells: E. coli TX393 with multicopy plasmid pJS85, or E. coli TX635 with lambda pL plasmid pJS119 or pJS167
Km [4]: 20 µM | Km [5]: 36 µM
